# How the values were obtained:
# human recombinant PLK4 = target: T1, human recombinant PLK4 (Homo sapiens, UniProt O00444); assay: PLK4 Biochemical Assay (ADP-Glo); settings: 0.5 nM PLK4, 8.0 μM ATP, 4.7 μM MBP, 6 hours at RT
# T1 construct: purchased ThermoFisher PV6396
# T1 sequence (O00444 1-970): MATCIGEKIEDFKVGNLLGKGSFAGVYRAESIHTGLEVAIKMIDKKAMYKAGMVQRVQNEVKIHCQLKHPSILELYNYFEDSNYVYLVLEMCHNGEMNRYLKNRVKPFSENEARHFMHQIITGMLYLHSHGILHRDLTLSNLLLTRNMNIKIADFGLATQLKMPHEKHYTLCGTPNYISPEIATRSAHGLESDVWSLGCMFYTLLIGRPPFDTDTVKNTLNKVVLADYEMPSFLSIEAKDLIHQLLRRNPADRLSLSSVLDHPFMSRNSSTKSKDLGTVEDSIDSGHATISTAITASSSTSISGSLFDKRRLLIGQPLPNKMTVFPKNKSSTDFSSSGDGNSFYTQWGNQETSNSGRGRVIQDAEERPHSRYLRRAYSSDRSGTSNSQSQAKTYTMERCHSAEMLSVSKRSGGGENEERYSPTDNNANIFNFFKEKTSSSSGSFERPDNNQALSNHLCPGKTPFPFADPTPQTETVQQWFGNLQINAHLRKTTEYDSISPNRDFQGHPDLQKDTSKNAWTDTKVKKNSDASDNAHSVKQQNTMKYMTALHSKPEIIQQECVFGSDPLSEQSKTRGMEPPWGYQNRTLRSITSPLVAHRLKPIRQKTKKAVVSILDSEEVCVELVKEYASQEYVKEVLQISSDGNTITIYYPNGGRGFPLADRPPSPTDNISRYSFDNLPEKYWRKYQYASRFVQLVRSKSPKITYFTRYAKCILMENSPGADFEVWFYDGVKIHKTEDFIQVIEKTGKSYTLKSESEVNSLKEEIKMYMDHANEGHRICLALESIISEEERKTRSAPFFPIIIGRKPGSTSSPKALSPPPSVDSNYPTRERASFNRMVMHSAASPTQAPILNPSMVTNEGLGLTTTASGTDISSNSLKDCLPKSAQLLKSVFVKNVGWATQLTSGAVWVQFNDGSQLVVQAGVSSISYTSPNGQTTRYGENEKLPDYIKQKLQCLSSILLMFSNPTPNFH
# Protocol: Activity of human recombinant PLK4 (ThermoFisher, cat #PV6396) was measured by quantification of adenosine diphosphate (ADP) using the ADP-Glo Kinase Assay Kit (Promega, cat #V9102). […] 5 μL of 1.0 nM PLK4 protein in assay buffer (50 mM HEPES, pH 7.5, 0.01% Brij-35, 0.01% BSA, 10 mM MgCl2, 1 mM EGTA, 1 mM DTT) was added to the plates. Test compounds and PLK4 were incubated for 15 minutes at room temperature (RT). […] Reactions were stopped and the remaining ATP depleted by adding 10 μL of ADP-Glo reagent (Promega, cat #V912B) and incubating for 40 minutes at RT. The simultaneous conversion of the remaining ADP to ATP and measurement of the newly synthesized ATP was achieved by addition of 20 μL Kinase Detection reagent (Promega, cat #V914B), incubation for 30 min at RT, and luminescence detection using the EnVision plate reader (PerkinElmer). […] The IC50 values reported in Table 2 were determined using four parameter non-linear regression curve fit.
# CHP134 = CHP134 CellTiter-Glo (CTG) Assay; type: cell-based; settings: Homo sapiens, CHP-134, 120 h; viable cells by CellTiter-Glo after 5 days
# Protocol: […] cells (DSMZ-German Collection of Microorganisms and Cell Cultures, Braunschweig Germany) were cultured in RPMI 1640 supplemented with 10% fetal bovine serum, penicillin (100 U/ml), 1% L-Glutamine and streptomycin ([…]). Cells were seeded (200 cells/well) in 384-well plates for 16 hours. On day two, nine serial 1:3 compound dilutions were made in DMSO in a 96-well plate. The compounds were then further diluted into growth media using a BRAVO robot (Agilent, Santa Clara, CA). The diluted compounds were then added to quadruplicate wells in the 384-well cell plate and incubated at 37° C. and 5% CO2. After 5 days, relative numbers of viable cells were measured by luminescence using CellTiter-Glo® (Promega) according to the manufacturer's instructions and read on a SPARK Multimode Microplate Reader (Tecan, Mannedorf Switzerland). The IC50 calculations for the values reported in Table 2 were carried out using Prism 6.0 software (GraphPad, San Diego).
# [1] = target: T2, human recombinant Aurora A (Homo sapiens, UniProt O14965); assay: Aurora A Kinase Biochemical Assay (ADP-Glo); settings: selectivity ratio; Aurora A 2.5 nM, 20 μM ATP
# T2 construct: purchased ThermoFisher PR5935A
# T2 sequence (O14965 1-403): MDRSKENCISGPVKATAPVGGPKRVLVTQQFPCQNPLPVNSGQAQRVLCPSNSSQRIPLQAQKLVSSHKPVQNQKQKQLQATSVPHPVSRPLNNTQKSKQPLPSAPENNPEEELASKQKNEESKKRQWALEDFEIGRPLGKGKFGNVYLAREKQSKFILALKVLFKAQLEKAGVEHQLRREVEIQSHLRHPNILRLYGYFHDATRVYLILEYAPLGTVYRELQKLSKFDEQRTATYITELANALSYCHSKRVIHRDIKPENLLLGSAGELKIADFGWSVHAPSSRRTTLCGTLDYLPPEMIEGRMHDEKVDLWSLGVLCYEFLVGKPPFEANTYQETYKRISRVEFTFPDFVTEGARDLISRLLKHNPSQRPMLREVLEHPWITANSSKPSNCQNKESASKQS
# Protocol: Activity of human recombinant Aurora A (ThermoFisher, cat #PR5935A) was measured by quantification of adenosine diphosphate (ADP) using the ADP-Glo Kinase Assay Kit (Promega, cat #V9102). Test compounds were solubilized in dimethyl sulfoxide (DMSO) and dispensed into 384-well white polystyrene nonbinding plates (Greiner, cat #781094) using the Echo acoustic dispenser (Labcyte Inc.) in a 11-point 3-fold titration in duplicates. 5 μL of 5.0 nM Aurora A in assay buffer (50 mM HEPES, pH 7.5, 0.01% Brij-35, 0.01% BSA, 10 mM MgCl2, 1 mM EGTA, 1 mM DTT) was added to the plates. Test compounds and Aurora A were incubated for 15 minutes at room temperature (RT). Then 5 μL of a 40 μM adenosine triphosphate (ATP) (Promega, cat #V915B) and 9.3 μM Myelin Basic Protein (MBP) (SignalChem, cat #M42-51N) substrate solution in assay buffer was added and the reaction mixture was incubated for 2 hours at RT. The final concentration of Aurora A, ATP and MBP in the reactions were 2.5 nM, 20 μM and 4.7 μM, respectively. Reactions were stopped and the remaining ATP depleted by adding 10 μL of ADP-Glo reagent (Promega, cat #V912B) and incubating for 40 minutes at RT. The simultaneous conversion of the remaining ADP to ATP and measurement of the newly synthesized ATP was achieved by addition of 20 μL Kinase Detection reagent (Promega, cat #V914B), incubation for 30 min at RT, and luminescence detection using the EnVision plate reader (PerkinElmer). Reactions lacking Aurora A were used as 100% inhibition controls. Reactions containing DMSO alone were used as 0% inhibition controls. The IC50 values reported in Table 2 were determined using four parameter non-linear regression curve fit.
# [2] = target: T3, human recombinant Aurora B (Homo sapiens, UniProt Q96GD4); assay: Aurora B Kinase Biochemical Assay (ADP-Glo); settings: selectivity ratio; Aurora B 10 nM, 114 μM ATP
# T3 construct: purchased ThermoFisher PR9210B
# T3 sequence (Q96GD4 whole entry): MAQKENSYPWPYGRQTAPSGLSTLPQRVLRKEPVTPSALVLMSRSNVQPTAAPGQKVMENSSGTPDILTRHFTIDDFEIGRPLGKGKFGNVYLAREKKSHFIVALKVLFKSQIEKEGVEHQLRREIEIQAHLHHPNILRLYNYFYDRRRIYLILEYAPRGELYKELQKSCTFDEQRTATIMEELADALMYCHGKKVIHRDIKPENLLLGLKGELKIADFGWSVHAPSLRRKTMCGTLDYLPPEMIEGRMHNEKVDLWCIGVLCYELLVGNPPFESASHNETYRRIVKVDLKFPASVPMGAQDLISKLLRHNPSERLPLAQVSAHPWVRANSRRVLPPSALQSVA
# Protocol: Activity of human recombinant Aurora B (ThermoFisher, cat #PR9210B) was measured by quantification of adenosine diphosphate (ADP) using the ADP-Glo Kinase Assay Kit (Promega, cat #V9102). Test compounds were solubilized in dimethyl sulfoxide (DMSO) and dispensed into 384-well white polystyrene nonbinding plates (Greiner, cat #781094) using the Echo acoustic dispenser (Labcyte Inc.) in a 11-point 3-fold titration in duplicates. 5 μL of 20 nM Aurora B in assay buffer (50 mM HEPES, pH 7.5, 0.01% Brij-35, 0.01% BSA, 10 mM MgCl2, 1 mM EGTA, 1 mM DTT) was added to the plates. Test compounds and Aurora B were incubated for 15 minutes at room temperature (RT). Then 5 μL of a 228 μM adenosine triphosphate (ATP) (Promega, cat #V915B) and 9.3 μM Myelin Basic Protein (MBP) (SignalChem, cat #M42-51N) substrate solution in assay buffer was added and the reaction mixture was incubated for 2 hours at RT. The final concentration of Aurora b, ATP and MBP in the reactions were 10 nM, 114 μM and 4.7 μM, respectively. Reactions were stopped and the remaining ATP depleted by adding 10 μL of ADP-Glo reagent (Promega, cat #V912B) and incubating for 40 minutes at RT. The simultaneous conversion of the remaining ADP to ATP and measurement of the newly synthesized ATP was achieved by addition of 20 μL Kinase Detection reagent (Promega, cat #V9141B), incubation for 30 min at RT, and luminescence detection using the EnVision plate reader (PerkinElmer). Reactions lacking Aurora B were used as […]. Reactions containing DMSO alone were used as […]. The IC50 values reported in Table 2 were determined using four parameter non-linear regression curve fit.
IC50 (human recombinant PLK4) [nM],[Aurora A IC50 (nM)]/[PLK4 IC50 (nM)] [1],[Aurora B IC50 (nM)]/[PLK4 IC50 (nM)] [2],SMILES,IC50 (CHP134) [nM]
0.862,,,"COc1ccc2c(c1)[C@]1(C[C@H]1c1ccc3c(Nc4ccc(C5(N(C)C)COC5)cc4OC)n[nH]c3c1)C(=O)N2 [Example 9, (1R,2S)-2-(3-{4-[3-(dimethylamino)oxetan-3-yl]-2-methoxyanilino}-1H-indazol-6-yl)-5′-methoxyspiro[cyclopropane-1,3′-indol]-2′(1′H)-one]",166
2.41,934.8277,608.5512,"COc1ccc2c(c1)[C@]1(C[C@H]1c1ccc3c(Nc4nc(-c5cncnc5)ncc4OC)n[nH]c3c1)C(=O)N2 [Example 25, (1R,2S)-5′-methoxy-2-{3-[(5-methoxy[2,5′-bipyrimidin]-4-yl)amino]-1H-indazol-6-yl}spiro[cyclopropane-1,3′-indol]-2′(1′H)-one]",
2.29,4350.9615,12202.7972,"COc1ccc2c(c1)[C@]1(C[C@H]1c1ccc3c(Nc4cc(-c5cn(C)nc5OC)ccc4OC)n[nH]c3c1)C(=O)N2 [Example 36, (1R,2S)-5′-methoxy-2-{3-[2-methoxy-5-(3-methoxy-1-methyl-1H-pyrazol-4-yl)anilino]-1H-indazol-6-yl}spiro[cyclopropane-1,3′-indol]-2′(1′H)-one]",

# Reference: US20260108527A1, “POLO LIKE KINASE 4 INHIBITORS” (ORIC Pharmaceuticals, Inc., priority 2022, published 2026)
